Experimental data: PubChem BioAssay AID1918945 (Molecular Pharmacology Branch, DTP, NCI, 2023)

System: 883617-216-R-J1-PDC complex spheroid viability
Assay: Anticancer human tumor 883617-216-R-J1-PDC patient-derived bladder carcinoma cell line growth inhibition
Conditions: for IC50: curve of first compound; for viability, T/C: stronger effect = lower value; active = viability on the fitted dose curve at most 10% of control; inactive = the rest
How it was run: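 Drug combinations with the LSD1 inhibitor iadademstat tested on tumor cells co-cultured as spheroids with endothelial cells and mesenchymal stem cells. Concentrations descended in half-log increments from clinical Cmax or 10 microM.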

[1] = second compound 0.1 µM, first compound 0.0316 µM
[2] = second compound 0.1 µM, first compound 0.1 µM
[3] = second compound 0.1 µM, first compound 0.316 µM
[4] = second compound 0.1 µM, first compound 1 µM
[5] = second compound 0.1 µM, first compound 3.16 µM
[6] = second compound 0.1 µM, first compound 10 µM
[7] = second compound 0.316 µM, first compound 0.0316 µM
[8] = second compound 0.316 µM, first compound 0.1 µM
[9] = second compound 0.316 µM, first compound 0.316 µM
[10] = second compound 0.316 µM, first compound 1 µM
[11] = second compound 0.316 µM, first compound 3.16 µM
[12] = second compound 0.316 µM, first compound 10 µM
[13] = second compound 1 µM, first compound 0.0316 µM
[14] = second compound 1 µM, first compound 0.1 µM
[15] = second compound 1 µM, first compound 0.316 µM
[16] = second compound 1 µM, first compound 1 µM
[17] = second compound 1 µM, first compound 3.16 µM
[18] = second compound 1 µM, first compound 10 µM
[19] = second compound 3.16 µM, first compound 0.0316 µM
[20] = second compound 3.16 µM, first compound 0.1 µM
[21] = second compound 3.16 µM, first compound 0.316 µM
[22] = second compound 3.16 µM, first compound 1 µM
[23] = second compound 3.16 µM, first compound 3.16 µM
[24] = second compound 3.16 µM, first compound 10 µM
[25] = second compound 10 µM, first compound 0.0316 µM
[26] = second compound 10 µM, first compound 0.1 µM
[27] = second compound 10 µM, first compound 0.316 µM
[28] = second compound 10 µM, first compound 1 µM
[29] = second compound 10 µM, first compound 3.16 µM
[30] = second compound 10 µM, first compound 10 µM
[31] = second compound 0.1 µM, first compound 0.00316 µM
[32] = second compound 0.1 µM, first compound 0.01 µM
[33] = second compound 0.316 µM, first compound 0.00316 µM
[34] = second compound 0.316 µM, first compound 0.01 µM
[35] = second compound 1 µM, first compound 0.00316 µM
[36] = second compound 1 µM, first compound 0.01 µM
[37] = second compound 3.16 µM, first compound 0.00316 µM
[38] = second compound 3.16 µM, first compound 0.01 µM
[39] = second compound 10 µM, first compound 0.00316 µM
[40] = second compound 10 µM, first compound 0.01 µM
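Note: exposure lasted seven days after three days of spheroid growth.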
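Throughout, for viability, T/C: 100% = DMSO vehicle control luminescence.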

CC(C)c1c(-c2ccccc2)nc2c(C#N)c[nH]n2c1=O + NC1CCC(NC2CC2c2ccccc2)CC1
> 10000 nM: IC50 (second compound 0.1 µM) | IC50 (second compound 0.316 µM) | IC50 (second compound 1 µM) | IC50 (second compound 3.16 µM) | IC50 (second compound 10 µM)
inactive: viability, T/C [1] 106% | viability, T/C [2] 102% | viability, T/C [3] 101% | viability, T/C [4] 103% | viability, T/C [5] 97.5% | viability, T/C [6] 93.8% | viability, T/C [7] 107% | viability, T/C [8] 109% | viability, T/C [9] 108% | viability, T/C [10] 105% | viability, T/C [11] 103% | viability, T/C [12] 95% | viability, T/C [13] 97.3% | viability, T/C [14] 91.8% | viability, T/C [15] 101% | viability, T/C [16] 95% | viability, T/C [17] 93.6% | viability, T/C [18] 86% | viability, T/C [19] 104% | viability, T/C [20] 99.7% | viability, T/C [21] 97.8% | viability, T/C [22] 98.2% | viability, T/C [23] 91.2% | viability, T/C [24] 89.9% | viability, T/C [25] 103% | viability, T/C [26] 106% | viability, T/C [27] 112% | viability, T/C [28] 98.2% | viability, T/C [29] 95.2% | viability, T/C [30] 86.1%

CC1COCCN1c1cc(-c2ccnn2C)c2ccnc(-c3ccn[nH]3)c2n1 (stereo not given) + NC1CCC(NC2CC2c2ccccc2)CC1
33.8 nM: IC50 (second compound 1 µM)
44.3 nM: IC50 (second compound 3.16 µM)
32.1 nM: IC50 (second compound 0.316 µM)
inactive: viability, T/C [31] 85% | viability, T/C [32] 62.2% | viability, T/C [1] 55.7% | viability, T/C [2] 41.2% | viability, T/C [3] 33.5% | viability, T/C [4] 31.5% | viability, T/C [33] 89.8% | viability, T/C [34] 62% | viability, T/C [7] 53.6% | viability, T/C [8] 40.4% | viability, T/C [9] 34% | viability, T/C [10] 30.8% | viability, T/C [35] 81.8% | viability, T/C [36] 60.2% | viability, T/C [13] 50.4% | viability, T/C [14] 43.8% | viability, T/C [15] 35.1% | viability, T/C [16] 28.4% | viability, T/C [37] 76.3% | viability, T/C [38] 59% | viability, T/C [19] 51.3% | viability, T/C [20] 47.2% | viability, T/C [21] 36.1% | viability, T/C [22] 28.3% | viability, T/C [39] 88.4% | viability, T/C [40] 66.7% | viability, T/C [25] 52.7% | viability, T/C [26] 45.5% | viability, T/C [27] 32.1% | viability, T/C [28] 25.5%
45.8 nM: IC50 (second compound 10 µM)
39.5 nM: IC50 (second compound 0.1 µM)

CC1COCCN1c1cc(C2(S(C)(=N)=O)CC2)nc(-c2ccnc3[nH]ccc23)n1 (stereo not given) + NC1CCC(NC2CC2c2ccccc2)CC1
1080 nM: IC50 (second compound 1 µM)
1130 nM: IC50 (second compound 0.316 µM)
1350 nM: IC50 (second compound 3.16 µM)
1050 nM: IC50 (second compound 0.1 µM)
inactive: viability, T/C [1] 106% | viability, T/C [2] 103% | viability, T/C [3] 78.9% | viability, T/C [4] 50.2% | viability, T/C [5] 43.9% | viability, T/C [6] 36.9% | viability, T/C [7] 99.9% | viability, T/C [8] 101% | viability, T/C [9] 77.7% | viability, T/C [10] 51.8% | viability, T/C [11] 39.7% | viability, T/C [12] 33% | viability, T/C [13] 101% | viability, T/C [14] 101% | viability, T/C [15] 70.8% | viability, T/C [16] 53.7% | viability, T/C [17] 39% | viability, T/C [18] 34.5% | viability, T/C [19] 100% | viability, T/C [20] 93% | viability, T/C [21] 75.4% | viability, T/C [22] 52.9% | viability, T/C [23] 40.6% | viability, T/C [24] 31.5% | viability, T/C [25] 106% | viability, T/C [26] 92.7% | viability, T/C [27] 78.8% | viability, T/C [28] 52% | viability, T/C [29] 43.8% | viability, T/C [30] 34.9%
1520 nM: IC50 (second compound 10 µM)

COc1ccc([C@@H](O)c2cc(-c3ncnc4cc(N5CCOCC5)ccc34)c(F)cc2Cl)nn1 + NC1CCC(NC2CC2c2ccccc2)CC1
1370 nM: IC50 (second compound 0.316 µM)
1200 nM: IC50 (second compound 0.1 µM)
inactive: viability, T/C [1] 97.8% | viability, T/C [2] 90.3% | viability, T/C [3] 72% | viability, T/C [4] 50.2% | viability, T/C [5] 38.2% | viability, T/C [6] 20.7% | viability, T/C [7] 103% | viability, T/C [8] 90.8% | viability, T/C [9] 73.6% | viability, T/C [10] 53.2% | viability, T/C [11] 38.5% | viability, T/C [12] 19.2% | viability, T/C [13] 101% | viability, T/C [14] 91.3% | viability, T/C [15] 83.2% | viability, T/C [16] 52.7% | viability, T/C [17] 35.1% | viability, T/C [18] 21% | viability, T/C [19] 97.6% | viability, T/C [20] 93.2% | viability, T/C [21] 73.7% | viability, T/C [22] 51.7% | viability, T/C [23] 32.1% | viability, T/C [24] 21.9% | viability, T/C [25] 100% | viability, T/C [26] 93.2% | viability, T/C [27] 70.2% | viability, T/C [28] 56.3% | viability, T/C [29] 41.4% | viability, T/C [30] 19.8%
1560 nM: IC50 (second compound 10 µM)
1080 nM: IC50 (second compound 3.16 µM)
1320 nM: IC50 (second compound 1 µM)

O=C(C=Cn1cnc(-c2cc(C(F)(F)F)cc(C(F)(F)F)c2)n1)NNc1cnccn1 + NC1CCC(NC2CC2c2ccccc2)CC1
18.8 nM: IC50 (second compound 0.1 µM)
inactive: viability, T/C [31] 87.4% | viability, T/C [32] 65.9% | viability, T/C [1] 36.3% | viability, T/C [2] 32.7% | viability, T/C [3] 28.9% | viability, T/C [4] 26.9% | viability, T/C [33] 102% | viability, T/C [34] 60.6% | viability, T/C [7] 39% | viability, T/C [8] 31.3% | viability, T/C [9] 29.7% | viability, T/C [10] 28.1% | viability, T/C [35] 87.4% | viability, T/C [36] 51% | viability, T/C [13] 36.5% | viability, T/C [14] 32.7% | viability, T/C [15] 28.1% | viability, T/C [16] 26.2% | viability, T/C [37] 99.5% | viability, T/C [38] 55.4% | viability, T/C [19] 44% | viability, T/C [20] 33% | viability, T/C [21] 29.6% | viability, T/C [22] 27.2% | viability, T/C [39] 99.2% | viability, T/C [40] 63.2% | viability, T/C [25] 40.7% | viability, T/C [26] 36.8% | viability, T/C [27] 31.8% | viability, T/C [28] 29.5%
20.7 nM: IC50 (second compound 10 µM)
17 nM: IC50 (second compound 3.16 µM)
17.6 nM: IC50 (second compound 0.316 µM)
11.4 nM: IC50 (second compound 1 µM)
